The compounds below were run on Spodoptera eridania, 3rd instar larvae, southern armyworm (assay: Southern armyworm 3rd instar test, dipped limabean leaf). Settings: 10 ppm; rating at 3 days.
Type: in vivo
Design: key: 0: no effect; 10-25% kill; 26-35% kill; 36-45% kill; 46-55% kill; 56-65% kill; 66-75% kill; 76-85% kill; 86-99% kill; 9: 100% kill
Outline: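 Ten 3rd instar larvae fed on limabean leaves that had been dipped for 3 s in test solution and dried. Test solutions were diluted in water from a 10,000 ppm stock in 35% acetone/water. Ratings at days 3 and 5 covered death, feeding reduction and abnormal molting.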
`CCOC(=S)SCn1c(Cl)c(C#N)c(Cl)c1-c1ccc(Cl)c(Cl)c1` [Example 37] was tested, and the “ARMYWORM Day 3” value was 9 (100% kill).
For `CSCn1c(Br)c(Br)c(C#N)c1-c1ccc(C(F)(F)F)cc1` [Example 44], the “ARMYWORM Day 3” value was 0.
`N#Cc1c(Cl)c(C(F)(F)F)n(CSC2=NCCN2)c1-c1ccc(Cl)cc1` [Example 4] was tested, and the “ARMYWORM Day 3” value was 9 (100% kill).

Same assay, conditions: 10 ppm; rating at 5 days
For `CCOC(=S)SCn1c(Cl)c(C#N)c(Cl)c1-c1ccc(Cl)c(Cl)c1` [Example 37], the “ARMYWORM Day 5” value was 9 (100% kill).
With `CSCn1c(Br)c(Br)c(C#N)c1-c1ccc(C(F)(F)F)cc1` [Example 44] the “ARMYWORM Day 5” value was 0.
`N#Cc1c(Cl)c(C(F)(F)F)n(CSC2=NCCN2)c1-c1ccc(Cl)cc1` [Example 4] was tested, and the “ARMYWORM Day 5” value was 9 (100% kill).

Same assay, conditions: 100 ppm; rating at 3 days
With `CCOC(=S)SCn1c(Cl)c(C#N)c(Cl)c1-c1ccc(Cl)c(Cl)c1` [Example 37] the “ARMYWORM Day 3” value was 9 (100% kill).
`CSCn1c(Br)c(Br)c(C#N)c1-c1ccc(C(F)(F)F)cc1` [Example 44] was tested, and the “ARMYWORM Day 3” value was 9 (100% kill).
`N#Cc1c(Cl)c(C(F)(F)F)n(CSC2=NCCN2)c1-c1ccc(Cl)cc1` [Example 4] was tested, and the “ARMYWORM Day 3” value was 9 (100% kill).

Same assay, conditions: 100 ppm; rating at 5 days
For `CCOC(=S)SCn1c(Cl)c(C#N)c(Cl)c1-c1ccc(Cl)c(Cl)c1` [Example 37], the “ARMYWORM Day 5” value was 9 (100% kill).
`CSCn1c(Br)c(Br)c(C#N)c1-c1ccc(C(F)(F)F)cc1` [Example 44] was tested, and the “ARMYWORM Day 5” value was 9 (100% kill).
With `N#Cc1c(Cl)c(C(F)(F)F)n(CSC2=NCCN2)c1-c1ccc(Cl)cc1` [Example 4] the “ARMYWORM Day 5” value was 9 (100% kill).

Same assay, conditions: 1000 ppm; rating at 3 days
For `CCOC(=S)SCn1c(Cl)c(C#N)c(Cl)c1-c1ccc(Cl)c(Cl)c1` [Example 37], the “ARMYWORM Day 3” value was 9 (100% kill).
`CSCn1c(Br)c(Br)c(C#N)c1-c1ccc(C(F)(F)F)cc1` [Example 44] was tested, and the “ARMYWORM Day 3” value was 9 (100% kill).
`N#Cc1c(Cl)c(C(F)(F)F)n(CSC2=NCCN2)c1-c1ccc(Cl)cc1` [Example 4] was tested, and the “ARMYWORM Day 3” value was 9 (100% kill).

Same assay, conditions: 1000 ppm; rating at 5 days
For `CCOC(=S)SCn1c(Cl)c(C#N)c(Cl)c1-c1ccc(Cl)c(Cl)c1` [Example 37], the “ARMYWORM Day 5” value was 9 (100% kill).
For `CSCn1c(Br)c(Br)c(C#N)c1-c1ccc(C(F)(F)F)cc1` [Example 44], the “ARMYWORM Day 5” value was 9 (100% kill).
`N#Cc1c(Cl)c(C(F)(F)F)n(CSC2=NCCN2)c1-c1ccc(Cl)cc1` [Example 4] was tested, and the “ARMYWORM Day 5” value was 9 (100% kill).

The compounds below were run on Spodoptera eridania, 3rd instar larvae, southern armyworm (assay: Southern armyworm systemic uptake (stem systemic) test). Settings: cut stem in emulsion 3 days.
Type: in vivo
Design: key: 0: no effect; 10-25% kill; 26-35% kill; 36-45% kill; 46-55% kill; 56-65% kill; 66-75% kill; 76-85% kill; 86-99% kill; 9: 100% kill
With `CCOC(=S)SCn1c(Cl)c(C#N)c(Cl)c1-c1ccc(Cl)c(Cl)c1` [Example 37] the “ARMYWORM Stem Sys” value was 0.
`CSCn1c(Br)c(Br)c(C#N)c1-c1ccc(C(F)(F)F)cc1` [Example 44] was tested, and the “ARMYWORM Stem Sys” value was 0.
With `N#Cc1c(Cl)c(C(F)(F)F)n(CSC2=NCCN2)c1-c1ccc(Cl)cc1` [Example 4] the “ARMYWORM Stem Sys” value was 0.

Each compound was assayed on Tetranychus urticae (OP-resistant strain), 2-spotted spider mite (assay: 2-spotted spider mite test, dipped infested limabean plants). Settings: 10 ppm; adult mites; rating scale 0-9.
Type: in vivo
Design: key: 0: no effect; 10-25% kill; 26-35% kill; 36-45% kill; 46-55% kill; 56-65% kill; 66-75% kill; 76-85% kill; 86-99% kill; 9: 100% kill
Outline: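 Compound dissolved at 10,000 ppm in 35% aqueous acetone, then water-diluted; limabean primary leaves carrying ~100 OP-resistant mites each are dipped 3 s and dried. Adult mortality read on one leaf after 2 days, eggs/newly emerged nymphs on another after 5 days, scored by rating scale.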
For `CCOC(=S)SCn1c(Cl)c(C#N)c(Cl)c1-c1ccc(Cl)c(Cl)c1` [Example 37], the “OP-RESISTANT MITES Adult” value was 0.

Same assay, conditions: 10 ppm; mite nymphs; rating scale 0-9
In the case of `CCOC(=S)SCn1c(Cl)c(C#N)c(Cl)c1-c1ccc(Cl)c(Cl)c1` [Example 37], the “OP-RESISTANT MITES Nymph” value is reported as 4 (46-55% kill).

Same assay, conditions: 10 ppm; mortality rating after 2 days
With `CSCn1c(Br)c(Br)c(C#N)c1-c1ccc(C(F)(F)F)cc1` [Example 44] the “OP-RESISTANT MITES Adult” value was 0.
`N#Cc1c(Cl)c(C(F)(F)F)n(CSC2=NCCN2)c1-c1ccc(Cl)cc1` [Example 4] was tested, and the “OP-RESISTANT MITES Adult” value was 0.

Same assay, conditions: 10 ppm; rating after 5 days
With `CSCn1c(Br)c(Br)c(C#N)c1-c1ccc(C(F)(F)F)cc1` [Example 44] the “OP-RESISTANT MITES Egg” value was 0.
For `N#Cc1c(Cl)c(C(F)(F)F)n(CSC2=NCCN2)c1-c1ccc(Cl)cc1` [Example 4], the “OP-RESISTANT MITES Egg” value was 0 and the “OP-RESISTANT MITES Nymph” value was 0.

Same assay, conditions: 100 ppm; rating after 5 days
`CSCn1c(Br)c(Br)c(C#N)c1-c1ccc(C(F)(F)F)cc1` [Example 44] was tested, and the “OP-RESISTANT MITES Egg” value was 7 (76-85% kill) and the “OP-RESISTANT MITES Nymph” value was 0.
In the case of `N#Cc1c(Cl)c(C(F)(F)F)n(CSC2=NCCN2)c1-c1ccc(Cl)cc1` [Example 4], the “OP-RESISTANT MITES Egg” value is reported as 0 and the “OP-RESISTANT MITES Nymph” value is reported as 0.

Same assay, conditions: 300 ppm; mite eggs; rating scale 0-9
For `CCOC(=S)SCn1c(Cl)c(C#N)c(Cl)c1-c1ccc(Cl)c(Cl)c1` [Example 37], the “OP-RESISTANT MITES Egg” value was 0.

Same assay, conditions: 300 ppm; mite nymphs; rating scale 0-9
In the case of `CCOC(=S)SCn1c(Cl)c(C#N)c(Cl)c1-c1ccc(Cl)c(Cl)c1` [Example 37], the “OP-RESISTANT MITES Nymph” value is reported as 0.

Same assay, conditions: 300 ppm; rating after 5 days
In the case of `CSCn1c(Br)c(Br)c(C#N)c1-c1ccc(C(F)(F)F)cc1` [Example 44], the “OP-RESISTANT MITES Egg” value is reported as 0.
For `N#Cc1c(Cl)c(C(F)(F)F)n(CSC2=NCCN2)c1-c1ccc(Cl)cc1` [Example 4], the “OP-RESISTANT MITES Egg” value was 9 (100% kill).

The compounds below were run on Aphis fabae, mixed instar, bean aphid (assay: Bean aphid spray test on nasturtium). Settings: 100 ppm; rating scale 0-9.
Type: in vivo
Design: key: 0: no effect; 10-25% kill; 26-35% kill; 36-45% kill; 46-55% kill; 56-65% kill; 66-75% kill; 76-85% kill; 86-99% kill; 9: 100% kill
Outline: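 Mortality rated on a scale 2 days after treatment of aphid-infested (100-200 per plant, infested a day earlier) ~5 cm nasturtiums sprayed to complete coverage. Spray solutions: 10,000 ppm compound in 35% acetone in water, with further water dilutions.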
With `CCOC(=S)SCn1c(Cl)c(C#N)c(Cl)c1-c1ccc(Cl)c(Cl)c1` [Example 37] the APHIDS was 0.

Same assay, conditions: 100 ppm; spray; mortality rating after 2 days
`CSCn1c(Br)c(Br)c(C#N)c1-c1ccc(C(F)(F)F)cc1` [Example 44] showed an APHIDS of 0.
With `N#Cc1c(Cl)c(C(F)(F)F)n(CSC2=NCCN2)c1-c1ccc(Cl)cc1` [Example 4] the APHIDS was 0.

The compounds below were run on Empoasca abrupta, adult, western potato leafhopper (assay: Western potato leafhopper contact test, dipped limabean leaf). Settings: 10 ppm; mortality rating after 2 days.
Type: in vivo
Design: key: 0: no effect; 10-25% kill; 26-35% kill; 36-45% kill; 46-55% kill; 56-65% kill; 66-75% kill; 76-85% kill; 86-99% kill; 9: 100% kill
Outline: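 Sieva limabean leaf dipped 3 s in compound solution (diluted in water from 10,000 ppm stock in 35% acetone), dried, and infested with about 10 adult leafhoppers on moist filter paper. Mortality counted after 2 days and scored on a rating scale.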
For `CSCn1c(Br)c(Br)c(C#N)c1-c1ccc(C(F)(F)F)cc1` [Example 44], the “LEAFHOPPER Contact” value was 0.
`N#Cc1c(Cl)c(C(F)(F)F)n(CSC2=NCCN2)c1-c1ccc(Cl)cc1` [Example 4] was tested, and the “LEAFHOPPER Contact” value was 0.

Same assay, conditions: 100 ppm; contact; rating scale 0-9
With `CCOC(=S)SCn1c(Cl)c(C#N)c(Cl)c1-c1ccc(Cl)c(Cl)c1` [Example 37] the “LEAFHOPPER Contact” value was 6 (66-75% kill).

Same assay, conditions: 100 ppm; mortality rating after 2 days
For `CSCn1c(Br)c(Br)c(C#N)c1-c1ccc(C(F)(F)F)cc1` [Example 44], the “LEAFHOPPER Contact” value was 7 (76-85% kill).
With `N#Cc1c(Cl)c(C(F)(F)F)n(CSC2=NCCN2)c1-c1ccc(Cl)cc1` [Example 4] the “LEAFHOPPER Contact” value was 9 (100% kill).

Each compound was assayed on Empoasca abrupta, adult, western potato leafhopper (assay: Western potato leafhopper systemic uptake test). Settings: 100 ppm; cut stem in emulsion 3 days; mortality rating after 2 days.
Type: in vivo
Design: key: 0: no effect; 10-25% kill; 26-35% kill; 36-45% kill; 46-55% kill; 56-65% kill; 66-75% kill; 76-85% kill; 86-99% kill; 9: 100% kill
Outline: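 Leafhopper mortality, rated on a scale, scored 2 days after about 10 adults were confined with a leaf in a moist dish. The leaf came from a cut lima bean stem that had taken up the compound emulsion (100 ppm and 10-fold dilutions) over 3 days at 27 °C.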
With `CSCn1c(Br)c(Br)c(C#N)c1-c1ccc(C(F)(F)F)cc1` [Example 44] the “LEAFHOPPER Systemic” value was 0.
For `N#Cc1c(Cl)c(C(F)(F)F)n(CSC2=NCCN2)c1-c1ccc(Cl)cc1` [Example 4], the “LEAFHOPPER Systemic” value was 0.

Same assay, conditions: 100 ppm; systemic uptake; rating scale 0-9
For `CCOC(=S)SCn1c(Cl)c(C#N)c(Cl)c1-c1ccc(Cl)c(Cl)c1` [Example 37], the “LEAFHOPPER Systemic” value was 0.

— patent EP0545103A1, “Insecticidal, acaricidal and molluscicidal 1-(substituted) thioalkylpyrroles” (priority 1991, dated 1993)
